The NIST ThermoML archive (doi:10.1021/je500936y)

Experiments:
[1] = xn = mol fraction of the nth substance listed; conditions: 100 kPa, Liquid; for speed of sound: Frequency=3 MHz, Sing-around technique in a fixed-path interferometer; for mass density: Vibrating tube method
[2] = refractive index (Na D-line) (dimensionless); xn = mol fraction of the nth substance listed; conditions: 100 kPa, Liquid, Standard Abbe refractometry

C=CN1CCCC1=O [N-vinylpyrrolidone] + CCCCn1cc[n+](C)c1.F[B-](F)(F)F
Conditions	mass density, [1] [kg/m3]	refractive index, [2]	speed of sound, [1] [m/s]
298.15 K, x2 = 0	1039.36	1.51119	1521.5
298.15 K, x2 = 0.1046	1069.96	1.4987	1537.3
298.15 K, x2 = 0.2035	1093.11	1.48698	1546
298.15 K, x2 = 0.3042	1113.53	1.47636	1552.7
298.15 K, x2 = 0.406	1131.03	1.46672	1557.8
298.15 K, x2 = 0.4945	1144.21	1.45868	1560.6
298.15 K, x2 = 0.607	1159.22	1.44913	1563.2
298.15 K, x2 = 0.697	1170.1	1.44241	1564.4
298.15 K, x2 = 0.7828	1179.78	–	1565.8
298.15 K, x2 = 0.9104	1191.59	1.42725	1566.1
303.15 K, x2 = 0	1034.95	1.50886	1502.5
303.15 K, x2 = 0.1046	1065.76	1.49659	1519.9
303.15 K, x2 = 0.2035	1089.01	1.48494	1529.6
303.15 K, x2 = 0.3042	1109.53	1.4745	1537.2
303.15 K, x2 = 0.406	1127.12	1.4648	1543
303.15 K, x2 = 0.4945	1140.37	1.45699	1546.2
303.15 K, x2 = 0.607	1155.45	1.44651	1549.5
303.15 K, x2 = 0.697	1166.39	1.44097	1551.4
303.15 K, x2 = 0.7828	1176.14	1.43197	1553
303.15 K, x2 = 0.9104	1187.99	1.42592	1553.9
308.15 K, x2 = 0	1030.55	1.5065	1483.7
308.15 K, x2 = 0.1046	1061.54	1.49444	1502.4
308.15 K, x2 = 0.2035	1084.92	1.48295	1513
308.15 K, x2 = 0.3042	1105.54	1.47251	1521.5
308.15 K, x2 = 0.406	1123.22	1.46308	1528
308.15 K, x2 = 0.4945	1136.54	1.45534	1532.1
308.15 K, x2 = 0.607	1151.7	1.44502	1535.8
308.15 K, x2 = 0.697	1162.69	1.43944	1538.3
308.15 K, x2 = 0.7828	1172.5	1.43065	1540.6
308.15 K, x2 = 0.9104	1184.4	1.42459	1542.1
313.15 K, x2 = 0	1026.14	1.50415	1465
313.15 K, x2 = 0.1046	1057.33	1.49224	1485
313.15 K, x2 = 0.2035	1080.83	1.48108	1496.5
313.15 K, x2 = 0.3042	1101.56	1.47065	1505.9
313.15 K, x2 = 0.406	1119.32	1.46137	1513.2
313.15 K, x2 = 0.4945	1132.74	1.45369	1517.9
313.15 K, x2 = 0.607	1147.96	1.44349	1522.3
313.15 K, x2 = 0.697	1159.01	1.43784	1525.3
313.15 K, x2 = 0.7828	1168.89	1.42937	1528.1
313.15 K, x2 = 0.9104	1180.83	1.42327	1530.1
318.15 K, x2 = 0	1021.73	1.50181	1446.5
318.15 K, x2 = 0.1046	1053.13	1.49001	1467.7
318.15 K, x2 = 0.2035	1076.75	1.47899	1480.3
318.15 K, x2 = 0.3042	1097.59	1.46886	1490.4
318.15 K, x2 = 0.406	1115.44	1.45957	1498.5
318.15 K, x2 = 0.4945	1128.96	1.45198	1503.9
318.15 K, x2 = 0.607	1144.25	1.44199	1509
318.15 K, x2 = 0.697	1155.36	1.43632	1512.5
318.15 K, x2 = 0.7828	1165.3	1.42834	1515.7
318.15 K, x2 = 0.9104	1177.29	1.42194	1518.3
323.15 K, x2 = 0	1017.33	1.49948	1428.1
323.15 K, x2 = 0.1046	1048.93	1.4878	1450.6
323.15 K, x2 = 0.2035	1072.68	1.47691	1464.1
323.15 K, x2 = 0.3042	1093.63	1.46692	1475.1
323.15 K, x2 = 0.406	1111.58	1.45773	1483.9
323.15 K, x2 = 0.4945	1125.2	1.45015	1489.9
323.15 K, x2 = 0.607	1140.57	1.44042	1495.7
323.15 K, x2 = 0.697	1151.73	1.43462	1499.8
323.15 K, x2 = 0.7828	1161.76	1.42708	1503.5
323.15 K, x2 = 0.9104	1173.77	1.42061	1506.7
